Experimental data published in patent US11535630B2, “Apelin receptor (APJ) agonists and uses thereof” (Research Triangle Institute, priority 2015, dated 2022).

target: T1, apelin receptor (APJ) (Homo sapiens, UniProt P35414); assay: In vitro apelin agonist activity (methods of Giddings et al., Apelin-13 as positive control); assay type: cell-based; settings: in vitro apelin agonist activity, methods of Giddings et al., Apelin-13 as positive control; read-out: EC50 (nM) Ave
T1 sequence (P35414 1-380): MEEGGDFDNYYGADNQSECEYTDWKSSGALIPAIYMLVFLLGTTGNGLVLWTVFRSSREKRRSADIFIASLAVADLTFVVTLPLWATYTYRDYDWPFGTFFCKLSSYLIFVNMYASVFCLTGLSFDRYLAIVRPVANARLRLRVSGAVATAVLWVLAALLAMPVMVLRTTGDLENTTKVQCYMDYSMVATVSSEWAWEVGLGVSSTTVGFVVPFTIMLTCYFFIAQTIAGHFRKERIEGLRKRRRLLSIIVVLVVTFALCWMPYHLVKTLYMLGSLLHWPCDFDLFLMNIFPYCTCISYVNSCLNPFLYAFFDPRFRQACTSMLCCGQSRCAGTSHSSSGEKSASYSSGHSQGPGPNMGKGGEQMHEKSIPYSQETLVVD
Excerpt: Characterization of the Apelin Agonist Activity of the Compounds
1:39-47, the contents of which are hereby incorporated by reference in its entirety. Using the methods described in Giddings et al. and Apelin-13 as a positive control.

SMILES | EC50
COc1cccc(Cl)c1-c1cc(C(=O)N[C@@H](CCN2CCCCC2)CC(=O)NC2CCC2)nn1C1CCCC1 [compound 370, (3S)-3-{[5-(2-chloro-6-methoxyphenyl)-1-cyclopentyl-1H-pyrazol-3-yl]formamido}-N-cyclobutyl-5-(piperidin-1-yl)pentanamide] | 1030 nM
O=C(C[C@H](CCN1CCCCC1)NC(=O)c1cc(-c2ccccc2)n(C2CCCC2)n1)NC1CCC1 [compound 365, (3S)-N-cyclobutyl-3-[(1-cyclopentyl-5-phenyl-1H-pyrazol-3-yl)formamido]-5-(piperidin-1-yl)pentanamide] | > 10000 nM
COc1cccc(OC)c1-c1cc(C(=O)N[C@H](CC(=O)O)c2ccccc2)nn1CC(C)C [compound 300, (3R)-3-{[5-(2,6-dimethoxyphenyl)-1-(2-methylpropyl)-1H-pyrazol-3-yl]formamido}-3-phenylpropanoic acid] | > 10000 nM
COc1cccc(OC)c1-c1cc(C(=O)N[C@@H](CCc2ccccc2)Cc2nnn[nH]2)nn1C1CCCC1 [compound 390, 1-cyclopentyl-5-(2,6-dimethoxyphenyl)-N-[(2S)-4-phenyl-1-(1H-1,2,3,4-tetrazol-5-yl)butan-2-yl]-1H-pyrazole-3-carboxamide] | 429 nM
CC(C[C@@H](CC(=O)NC1CCC1)NC(=O)c1cc(-c2ccccc2C(F)(F)F)n(C2CCCC2)n1)N1CCC(F)(F)C1 (stereo partly drawn) [compound 573, (3S)-N-cyclobutyl-3-({1-cyclopentyl-5-[2-(trifluoromethyl)phenyl]-1H-pyrazol-3-yl}formamido)-5-(3,3-difluoropyrrolidin-1-yl)hexanamide] | 299 nM
CCN(CC)CC[C@@H](CC(=O)NC1CCC1)NC(=O)c1cc(-c2c(OC)cccc2OC)n(C2CCCC2)n1 [compound 314, (3S)-N-cyclobutyl-3-{[1-cyclopentyl-5-(2,6-dimethoxyphenyl)-1H-pyrazol-3-yl]formamido}-5-(diethylamino)pentanamide] | 1840 nM

Now those with a lower EC50, led by results:

EC50 | SMILES
231 nM | CC1(C)CC(F)(F)CN1CC[C@@H](CC(=O)O)NC(=O)c1cc(-c2ccccc2C(F)(F)F)n(C2CCCC2)n1 [compound 612, (3S)-3-({1-cyclopentyl-5-[2-(trifluoromethyl)phenyl]-1H-pyrazol-3-yl}formamido)-5-(4,4-difluoro-2,2-dimethylpyrrolidin-1-yl)pentanoic acid]
161 nM | CN(C(=O)C[C@H](CCN1CCCC[C@@H]1C(F)(F)F)NC(=O)c1cc(-c2ccccc2C(F)(F)F)n(C2CCCC2)n1)c1nccs1 [compound 489, (3S)-3-({1-cyclopentyl-5-[2-(trifluoromethyl)phenyl]-1H-pyrazol-3-yl}formamido)-N-methyl-N-(1,3-thiazol-2-yl)-5-[(2R)-2-(trifluoromethyl)piperidin-1-yl]pentanamide]
146 nM | O=C(N[C@@H](CCc1ccc(F)cc1)Cc1nnc(C(F)(F)F)o1)c1cc(-c2ccccc2C(F)(F)F)n(C2CCCC2)n1 [compound 475, 1-cyclopentyl-N-[(2S)-4-(4-fluorophenyl)-1-[5-(trifluoromethyl)-1,3,4-oxadiazol-2-yl]butan-2-yl]-5-[2-(trifluoromethyl)phenyl]-1H-pyrazole-3-carboxamide]
30 nM | O=C(N[C@@H](CCN1CCCC(F)(F)C1)Cc1nnc[nH]1)c1cc(-c2ccccc2Cl)n(C2CCCC2)n1 [compound 450, 5-(2-chlorophenyl)-1-cyclopentyl-N-[(2S)-4-(3,3-difluoropiperidin-1-yl)-1-(4H-1,2,4-triazol-3-yl)butan-2-yl]-1H-pyrazole-3-carboxamide]
12.5 nM | CCc1ccccc1-c1cc(C(=O)N[C@@H](CCN2CCC(F)(F)CC2)CC(=O)Nc2nccs2)nn1C1CCCC1 [compound 409, (3S)-3-{[1-cyclopentyl-5-(2-ethylphenyl)-1H-pyrazol-3-yl]formamido}-5-(4,4-difluoropiperidin-1-yl)-N-(1,3-thiazol-2-yl)pentanamide]
